Article PMC5412877, “Discovery of a PCAF Bromodomain Chemical Probe” (Angewandte Chemie (International Ed. in English), 2016)
Several values for one entry are separate records, joined by “and”; a condition that tells them apart may be missing. Equal entries are not always repeated. Where two headings read alike, the source gives them in different places.

What was measured:
Format in all cases: binding
PCAF Brd [1] = molecular target: T1, PCAF Brd (Homo sapiens, UniProt Q92831); experiment: Differential scanning fluorimetry (DSF), PCAF Brd; conditions: compound concentration 10 μM
T1 construct: Human bromodomains were cloned, expressed and purified as previously described; made in house
T1 sequence (Q92831 723-827 limits assumed): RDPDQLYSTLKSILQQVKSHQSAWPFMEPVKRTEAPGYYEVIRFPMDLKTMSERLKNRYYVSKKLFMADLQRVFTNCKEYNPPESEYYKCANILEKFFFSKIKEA
Protocol: (§1) Protein Expression and Purification
(§2) Human bromodomains were cloned, expressed and purified as previously described.[1]
(§3) Differential Scanning Fluorimetry (DSF)
(§4) Thermal melting points were recorded using an Mx3005p Real Time PCR Machine (Stratagene).
(§5) Subject proteins were buffered in 10 mM HEPES at pH 7.5, 500 mM NaCl and assayed in a 96-well […]
(§6) plate at a final concentration of 2 μM in 20 μL volume. Compounds were then added to a final […]
(§7) concentration of 10 μM. SPYRO Orange (Molecular Probes) was used as a fluorescent probe at a […]
(§8) dilution of 1:1000. Excitation and emission filters for the SPYRO-Orange dye were set to 465 nm and […]
(§9) 590 nm, respectively. The temperature was raised with a step of 3 °C/min from 25 °C to 96 °C and […]
(§10) fluorescence readings were taken at each interval. Data was analysed as previously described.[2]
(§11) Bromodomain affinity selectivity panel of (S)-11
(§12) Supplemental Figure 1. DSF Selectivity panel of (S)-11 against 48 human Bromodomains. […]
(§13) ┼Mean ΔTm ± SEM (number of measurements= 2). Compound concentration: 10 μM […]
(§14) (1 picture or pasted object on this page, not shown here)

GCN5L2 = molecular target: T2, GCN5L2 (Homo sapiens, UniProt Q92830); experiment: Differential scanning fluorimetry (DSF), GCN5 (GCN5L2) Brd; conditions: compound 10 μM; for ΔTm at 10 µM: read-out: GCN5L2 ΔTm (°C) (DSF)
T2 construct: made in house
T2 sequence (Q92830 728-832 limits assumed): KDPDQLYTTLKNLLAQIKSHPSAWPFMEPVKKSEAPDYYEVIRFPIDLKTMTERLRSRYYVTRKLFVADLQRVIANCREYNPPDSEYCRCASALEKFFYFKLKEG
Protocol: as §1, §2, §3, §4, §5, §6, §7, §8, §9, §10, §11, §12, §13, §14

PCAF Brd [2] = molecular target: T1, PCAF Brd; experiment: Isothermal titration calorimetry (ITC), PCAF Brd
Protocol: Isothermal Titration Calorimetry (ITC)
Experiments were carried out on a Nano-ITC Standard Volume Instrument (TA Instruments). All experiments were carried out at 25 °C in 20 mM HEPES pH 7.5, 150 mM NaCl, 0.5 mM TCEP and 5% glycerol. Protein solutions were buffer exchanged by gel filtration. The titrations were conducted using an initial injection of 2 μL followed by 32 injections of 8 μL. Background dilution heat was substracted from each experiment. Thermodynamic parameters were calculated using ΔG = ΔH-T ΔS = -RTlnKB , where KD = 1/KB. ΔG, ΔH and ΔS are changes in free energy, enathalpy and entropy resepectively. Independent single site binding models were employed in data analysis.
Supplemental Figure 3. ITC trace of D-Moses and PCAF Brd […]

[3] = Table 2, read-out: K D (nM) (ITC) PCAF Brd
[4] = Table 1, read-out: K D [μM] (ITC) PCAF Brd
[5] = Supplemental Table 3, compound concentration 30 μM, protein concentration 280-320 μM, read-out: PCAF KD (μM) (ITC)

ΔT m [°C] PCAF (DSF) (PCAF Brd [1]) | ΔTm at 10 µM (GCN5L2) | Kd (PCAF Brd [2]; [3]) | Kd (PCAF Brd [2]; [4]) | Kd (PCAF Brd [2]; [5]) | GCN5L2 ΔTm (°C) (DSF) (GCN5L2) | SMILES
7.8 °C | 4.3 °C | 160 ± 54 nM |  |  |  | Cc1ccc([C@@H]([C@H](C)Nc2nn3c(C)nnc3c3ccccc23)N(C)C)cc1 (relative stereo) [Compound 41]
9.1 °C | 7.2 °C | 163 ± 117 nM |  |  |  | Cc1nnc2c3ccccc3c(N[C@@H](C)[C@H](c3ccc(C(F)(F)F)cc3)N(C)C)nn12 (relative stereo) [Compound 43]
 |  |  | > 30000 nM |  |  | Cc1nnc2c3ccccc3c(NCCCN(C)C)nn12 [Compound 8]
0.9 °C | 0.3 °C |  | > 30000 nM |  |  | Cc1nnc2c3ccccc3c(NCCCCN(C)C)nn12 [Compound 9]
1.7 °C |  |  | 1000 nM |  |  | Cc1nnc2c3ccccc3c(NCC(c3ccccc3)N(C)C)nn12 (stereo not drawn) [Compound 10]
5.6 °C | 2.5 °C |  | 300 ± 39 nM | 298 nM |  | Cc1nnc2c3ccccc3c(NC(C)CN(C)C)nn12 (stereo not drawn) [Compound 11]
3.3 °C | 1.1 °C |  | 1800 ± 230 nM | 1760 nM |  | CCC(CN(C)C)Nc1nn2c(C)nnc2c2ccccc12 (stereo not drawn) [Compound 12]
0.9 °C and 0.85 °C | 1.1 °C |  | > 30000 nM |  |  | Cc1nnc2c3ccccc3c(NC(CC(C)C)CN(C)C)nn12 (stereo not drawn) [Compound 13]
0 °C | 0 °C |  | > 30000 nM |  |  | CCN(CC)CC(C)Nc1nn2c(C)nnc2c2ccccc12 (stereo not drawn) [Compound 14]
4.6 °C | 1 °C |  | 7300 ± 1100 nM |  |  | Cc1nnc2c3ccccc3c(NCC(C)N(C)C)nn12 (stereo not drawn) [Compound 15]
 |  |  | 6900 ± 1400 nM |  |  | CCC(CNc1nn2c(C)nnc2c2ccccc12)N(C)C (stereo not drawn) [Compound 16]
9.6 °C | 6.3 °C | 133 ± 15 nM |  |  |  | COC(=O)c1ccc([C@@H]([C@H](C)Nc2nn3c(C)nnc3c3ccccc23)N(C)C)cc1 [Compound 40]
6.2 °C | 2.7 °C | 223 ± 78 nM |  |  |  | Cc1nnc2c3ccccc3c(N[C@@H](C)[C@H](c3ccc(Cl)cc3)N(C)C)nn12 [Compound 42]
10.3 °C | 6.8 °C | 179 ± 48 nM |  |  |  | COc1ccc([C@@H]([C@H](C)Nc2nn3c(C)nnc3c3ccccc23)N(C)C)cc1 [Compound 44]
1.1 °C | 0.1 °C |  |  |  |  | Cc1nnc2c3ccccc3c(NC3CCCN(C)C3=O)nn12 (stereo not drawn) [Compound 50]
1.0 °C | 0 °C |  |  |  |  | Cc1nnc2c3ccccc3c(NC(CO)c3ccccc3)nn12 (stereo not drawn) [Compound 51]
0.6 °C | 0.1 °C |  |  | > 30000 nM |  | Cc1nnc2c3ccccc3c(N[C@H]3CCCN(Cc4ccccc4)C3)nn12 [Compound 56]
0.4 °C |  |  |  | > 30000 nM | 0.1 °C | COc1cccc(N2CC(Nc3nn4c(C)nnc4c4ccccc34)CC2=O)c1 (stereo not drawn) [Compound 57]
2.7 °C | 0.4 °C |  |  |  |  | Cc1nnc2c3ccccc3c(NCC3COCCN3C)nn12 (stereo not drawn) [Compound 58]
3.7 °C |  |  |  | 4300 nM | 0.7 °C | CC(=O)O.Cc1nnc2c3ccccc3c(NCCN3CCCC3)nn12 [Compound 59]

ΔT m [°C] PCAF (DSF) (PCAF Brd [1]) | ΔTm at 10 µM (GCN5L2) | Kd (PCAF Brd [2]; [3]) | Kd (PCAF Brd [2]; [4]) | Kd (PCAF Brd [2]; [5]) | GCN5L2 ΔTm (°C) (DSF) (GCN5L2) | SMILES
2.9 °C | 1.1 °C |  |  | 1130 nM |  | Cc1nnc2c3ccccc3c(NCC3CCCCN3C)nn12 (stereo not drawn) [Compound 60]
0.5 °C |  |  |  |  | 0 °C | Cc1nnc2c3ccccc3c(N[C@H]3C[C@@H]4CC[C@H]3C4)nn12 [Compound 61]
0.2 °C | 0.3 °C |  |  | > 30000 nM |  | Cc1nnc2c3ccccc3c(N3CCN(CCN4CCCCC4)CC3)nn12 [Compound 62]
0.2 °C | 0 °C |  |  |  |  | CCN1CCCCC1CNc1nn2c(C)nnc2c2ccccc12 (stereo not drawn) [Compound 63]
1.1 °C |  |  |  | > 30000 nM | 0.5 °C | Cc1nnc2c3ccccc3c(N[C@@H]3CCCN(Cc4ccccc4)C3)nn12 [Compound 64]
 |  |  |  | > 30000 nM |  | Cc1nnc2c3ccccc3c(N[C@@H]3CCCN(C(=O)OCc4ccccc4)C3)nn12 [Compound 65]
0.6 °C |  |  |  | > 30000 nM | 0.1 °C | Cc1nnc2c3ccccc3c(N[C@H]3CCCC[C@@H]3N(C)C)nn12 [Compound 66]
0.7 °C | 0.3 °C |  |  | 321 nM |  | Cc1nnc2c3ccccc3c(N[C@@H]3CCC[C@H]3N(C)C)nn12 [Compound 67]
0.8 °C |  |  |  | > 30000 nM | 0.1 °C | Cc1nnc2c3ccccc3c(N3CCC(N(C)C)C3)nn12 (stereo not drawn) [Compound 68]
0.9 °C | 0 °C |  |  | > 30000 nM |  | Cc1nnc2c3ccccc3c(NCCN3CCN(C)CC3)nn12 [Compound 69]
0 °C | 0.1 °C |  |  | > 30000 nM |  | Cc1nnc2c3ccccc3c(NC(C)CN3CCC(C)CC3)nn12 (stereo not drawn) [Compound 70]
 |  |  |  | 2300 nM |  | Cc1nnc2c3ccccc3c(NC(C)c3ccccn3)nn12 (stereo not drawn) [Compound 71]
 |  |  |  | > 30000 nM |  | Cc1nnc2c3ccccc3c(NC(C)c3cnccn3)nn12 (stereo not drawn) [Compound 72]
0.3 °C | 0.2 °C |  |  |  |  | Cc1nnc2c3ccccc3c(N[C@@H](C)[C@H](O)c3ccccc3)nn12 [Compound 77]
1.0 °C |  |  |  |  | 0.3 °C | Cc1nnc2c3ccccc3c(NCC(=O)c3ccccc3)nn12 [Compound 81]
 |  |  |  | > 30000 nM |  | CN(C)CCNc1nn2c(C(F)(F)F)nnc2c2ccccc12 [Compound 87]
0 °C | 0.2 °C |  |  |  |  | Cc1nnc2c3ccccc3c(Cl)nn12 [Compound 94]
0.7 °C | 0.2 °C |  |  |  |  | Cc1nnc2c3ccccc3c(NCCN3CCOCC3)nn12 [Compound 98]
3.8 °C | 1.5 °C |  |  |  |  | Cc1nnc2c3ccccc3c(NCC3CCCOC3)nn12 (stereo not drawn) [Compound 99]
